What was measured:
hTRPA1 [1] = target: T1, hTRPA1 (Homo sapiens, UniProt O75762); assay: Ca2+ imaging (Fura-2 AM) of hTRPA1-expressing Flp-In 293 cells; format: cell-based; conditions: RR 30 µM, HC-030031 100 µM
T1 construct: expressed in transfected cells
Description: Flp-In 293 cell lines stably expressing hTRPA1constructed as previously reported was a gift from the professor […] at University of Tokyo. The hTRPA1-expressing cells were cultured in DMEM containing 10% FBS and 0.02% hygromycin B (Invitrogen). Flp-In 293 cell lines were maintained in DMEM containing 10% FBS. All cells were incubated at 37°C in a humidified atmosphere of 5% CO2. […] Mock-transfected HEK293T cells, hTRPV1-expressing HEK293T cells, non-hTRPA1-expressing Flp-In 293 cells, and hTRPA1-expressing Flp-In 293 cells grown in 96-well black-wall plates were rinsed with assay buffer (130 mM NaCl, 10 mM glucose, 5 mM KCl, 2 […]2, 1.2 mM MgCl2, and 10 mM HEPES, pH 7.4) and loaded with 5 μM Fura-2 AM (Invitrogen) for 30 min at 27°C. The cells were washed with assay buffer and treated with ligands. […] The fluorescence intensities of Fura-2 excited at 340 and 380 nm were simultaneously measured at 510 nm using a computer-controlled filter changer (Lambda DG4; Sutter, San Rafael, CA, USA), an Andor Luca CCD camera (Andor Technology, Belfast, UK), and an inverted fluorescence microscope (IX-71; Olympus, Tokyo, Japan). Intracellular calcium images were recorded every 3-s for 60-s and analyzed using MetaFluor software (Molecular Devices, Sunnyvale, CA, USA).

hTRPA1 [2] = target: T1, hTRPA1; assay: Measurement of Ca2+ influx (Fluo-4 AM, FlexStation III) in hTRPA1-expressing cells; format: cell-based; conditions: for block of NGCC activity on hTRPA1-expressing cells (dose-response): RR 30 µM, HC-030031 100 µM; for block of AITC activity on hTRPA1-expressing cells (dose-response): RR 30 µM: below 30 µM AITC, HC-030031 100 µM: below 10 µM AITC
Description: (§1) Flp-In 293 cell lines stably expressing hTRPA1constructed as previously reported was a gift from the professor Takumi Misaka at University of Tokyo. The hTRPA1-expressing cells were cultured in DMEM containing 10% FBS and 0.02% hygromycin B (Invitrogen). Flp-In 293 cell lines were maintained in DMEM containing 10% FBS. All cells were incubated at 37°C in a humidified atmosphere of 5% CO2.
(§2) The ligand-induced changes on cytosolic Ca^2+ level were monitored by a FlexStation III microplate reader (Molecular Devices). Fluo-4 AM (5 µM, Molecular Probes, Eugene, OR, USA) in assay buffer was loaded to the cells in 96-well black-wall plates for 30 min at 27°C. After dye treatment, each chemical was added to each well at 17 s and changes on intracellular Ca^2+ level were monitored by relative fluorescence units (ΔRFU, Ex = 485 nm; Em = 516 nm) for 120 s. […] The responses from at least three wells receiving the same stimulus were averaged. Plots of amplitude versus concentration were fitted using the Hill equation.

hTRPA1 [3] = target: T1, hTRPA1; assay: Whole-cell patch clamp recording, cells stably expressing hTRPA1; format: cell-based
Description: as §1
(§3) The whole-cell configuration was used to voltage-clamp at room temperature (22–25°C). Electrodes pulled from glass micropipette capillaries (Sutter Instrument) had resistances of 2–2.5 MΩ, and series resistance errors were compensated >60%. Fast and slow capacitances were compensated before the application of test-pulse. Recordings were performed using aHEKAEPC-10 amplifier with pulse software (HEKA Elektronik). The pipette solution contained: 140 mM KCl, 5 mM MgCl2, 10 mM HEPES, 0.1 mM 1,2-bis(2-aminophenoxy) ethane N,N,N’,N’-tetraacetic acid(BAPTA), 3 mM Na2ATP, and 0.1 mM Na3GTP, adjusted to pH 7.4 with KOH. The external Ringer’s solution used for recording TRPV1 and TRPA1 currents contained: 150 mM NaCl, 5 mM KCl, 1 mM MgCl2, 2 mM EGTA, 10 mM Glucose, and 10 mM HEPES, adjusted to pH 7.4 with NaOH. TRPV1 and TRPA1 currents were recorded by holding the cell at −80 mV. The external Ringer’s solution used for recording ASIC current contained: 160 mM NaCl, 5 mM KCl, 1 mM MgCl2, 2 mM CaCl2, and 10 mM HEPES, adjusted to pH 7.4 with tetramethylammonium hydroxide. For acidic solution of pH 6.0, HEPES was replaced with MES. ASIC currents were recorded by holding the cell at −70 mV. Reagents were obtained as follows: BAPTA, Na2ATP, Na3GTP, EGTA, and tetramethylammonium hydroxide (Sigma), HEPES (Calbiochem), MES (Alfa Aesar), and other chemicals (Merck).

hTRPV1 [4] = target: T2, hTRPV1 (Homo sapiens, UniProt Q8NER1); assay: Measurement of Ca2+ influx (Fluo-4 AM, FlexStation III) in hTRPV1-expressing cells; format: cell-based; conditions: RR 30 µM or CPZ 1 µM added with agonist
T2 construct: expressed in transfected cells; host or cells: HEK293T
T2 sequence (Q8NER1 whole entry): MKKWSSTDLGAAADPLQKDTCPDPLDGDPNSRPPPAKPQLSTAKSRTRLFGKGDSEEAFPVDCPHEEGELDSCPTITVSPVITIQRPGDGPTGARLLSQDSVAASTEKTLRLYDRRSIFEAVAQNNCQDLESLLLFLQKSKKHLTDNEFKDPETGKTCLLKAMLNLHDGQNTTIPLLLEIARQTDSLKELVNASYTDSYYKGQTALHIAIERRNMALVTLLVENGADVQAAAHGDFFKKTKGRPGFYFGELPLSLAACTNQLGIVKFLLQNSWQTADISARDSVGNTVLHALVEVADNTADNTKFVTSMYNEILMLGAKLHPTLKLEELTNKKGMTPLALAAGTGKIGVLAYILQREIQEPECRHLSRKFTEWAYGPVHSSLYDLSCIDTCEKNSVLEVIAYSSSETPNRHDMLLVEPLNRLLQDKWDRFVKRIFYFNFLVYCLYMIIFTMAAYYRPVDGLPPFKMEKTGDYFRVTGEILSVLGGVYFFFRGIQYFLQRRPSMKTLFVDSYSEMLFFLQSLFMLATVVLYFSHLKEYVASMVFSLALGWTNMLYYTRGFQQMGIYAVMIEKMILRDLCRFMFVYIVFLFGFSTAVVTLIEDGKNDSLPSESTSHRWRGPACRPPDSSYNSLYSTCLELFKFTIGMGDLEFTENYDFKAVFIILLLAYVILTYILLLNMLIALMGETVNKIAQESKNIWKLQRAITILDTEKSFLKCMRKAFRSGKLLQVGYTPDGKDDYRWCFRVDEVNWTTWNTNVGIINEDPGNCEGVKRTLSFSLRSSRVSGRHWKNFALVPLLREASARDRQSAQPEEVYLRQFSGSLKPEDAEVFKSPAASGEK
Description: as §2, with “hTRPV1 was constructed by amplification of the hTRPV1 region (NCBI accession number: NG_029716.1) and cloned into pEAK10 vector (Edge Biosystems, Gaithersburg, MD, USA). The hTRPV1 construct was amplified by PCR and the nucleotide sequence of the hTRPV1 gene was confirmed by sequencing with an ABI 3130 DNA genetic analyzer (Applied Biosystems, Foster City, CA, USA). […] After 6 h, transfected cells were seeded onto 96-well black-wall plate (BD Falcon Labware, Franklin Lakes, NJ, USA) for 18–26 h prior to their use in an experiment. The ligand-induced” for “The ligand-induced”

hTRPV1 [5] = target: T2, hTRPV1; assay: Ca2+ imaging (Fura-2 AM) of hTRPV1-expressing HEK293T cells; format: cell-based; conditions: NGCC 30 µM; RR 30 µM, CPZ 1 µM
Description: hTRPV1 was constructed by amplification of the hTRPV1 region (NCBI accession number: NG_029716.1) and cloned into pEAK10 vector (Edge Biosystems, Gaithersburg, MD, USA). The hTRPV1 construct was amplified by PCR and the nucleotide sequence of the hTRPV1 gene was confirmed by sequencing with an ABI 3130 DNA genetic analyzer (Applied Biosystems, Foster City, CA, USA). […] After 6 h, transfected cells were seeded onto 96-well black-wall plate (BD Falcon Labware, Franklin Lakes, NJ, USA) for 18-26 h prior to their use in an experiment. Mock-transfected HEK293T cells, hTRPV1-expressing HEK293T cells, non-hTRPA1-expressing Flp-In 293 cells, and hTRPA1-expressing Flp-In 293 cells grown in 96-well black-wall plates were rinsed with assay buffer (130 mM NaCl, 10 mM glucose, 5 mM KCl, 2 […]2, 1.2 mM MgCl2, and 10 mM HEPES, pH 7.4) and loaded with 5 μM Fura-2 AM (Invitrogen) for 30 min at 27°C. […] The fluorescence intensities of Fura-2 excited at 340 and 380 nm were simultaneously measured at 510 nm using a computer-controlled filter changer (Lambda DG4; Sutter, San Rafael, CA, USA), an Andor Luca CCD camera (Andor Technology, Belfast, UK), and an inverted fluorescence microscope (IX-71; Olympus, Tokyo, Japan). Intracellular calcium images were recorded every 3-s for 60-s and analyzed using MetaFluor software (Molecular Devices, Sunnyvale, CA, USA).

hTRPV1 [6] = target: T2, hTRPV1; assay: Whole-cell patch clamp recording, hTRPV1-expressing HEK293T cells; format: cell-based; conditions: capsaicin 100 nM; NGCC 10^3 µM; holding -80 mV
Description: Mouse ASIC1a (mASIC1a) was a kind gift from John A. Wemmie (University of Iowa, IA, USA). For electrophysiological experiments, HEK293T cells were cultured in DMEM supplemented with 10% FBS and 0.2% penicillin/streptomycin and transiently transfected using Lipofectamine 2000 (Invitrogen) with various cDNAs. For TRPV1 channel expression, cells were transfected with hTRPV1, for ASIC1a homomeric channel expression, cells were transfected with mASIC1a. When needed, 0.1–0.2 µg of cDNA encoding tetrameric red fluorescence protein (DsRed) was co-transfected with the cDNA as a marker for successfully transfected cells. For non-transfected cells, cells were transfected with 0.1–0.2 µg of cDNA encoding DsRed alone. The next day, cells were plated onto poly-L-lysine-coated coverslip chips, and fluorescent cells were studied within 1–2 days.
as §3

[7] = system: Bz-insensitive NaCl CT response; design: method as in PMID 15146042; conditions: rat CT recordings, cited from earlier work

T1 sequence (O75762 whole entry): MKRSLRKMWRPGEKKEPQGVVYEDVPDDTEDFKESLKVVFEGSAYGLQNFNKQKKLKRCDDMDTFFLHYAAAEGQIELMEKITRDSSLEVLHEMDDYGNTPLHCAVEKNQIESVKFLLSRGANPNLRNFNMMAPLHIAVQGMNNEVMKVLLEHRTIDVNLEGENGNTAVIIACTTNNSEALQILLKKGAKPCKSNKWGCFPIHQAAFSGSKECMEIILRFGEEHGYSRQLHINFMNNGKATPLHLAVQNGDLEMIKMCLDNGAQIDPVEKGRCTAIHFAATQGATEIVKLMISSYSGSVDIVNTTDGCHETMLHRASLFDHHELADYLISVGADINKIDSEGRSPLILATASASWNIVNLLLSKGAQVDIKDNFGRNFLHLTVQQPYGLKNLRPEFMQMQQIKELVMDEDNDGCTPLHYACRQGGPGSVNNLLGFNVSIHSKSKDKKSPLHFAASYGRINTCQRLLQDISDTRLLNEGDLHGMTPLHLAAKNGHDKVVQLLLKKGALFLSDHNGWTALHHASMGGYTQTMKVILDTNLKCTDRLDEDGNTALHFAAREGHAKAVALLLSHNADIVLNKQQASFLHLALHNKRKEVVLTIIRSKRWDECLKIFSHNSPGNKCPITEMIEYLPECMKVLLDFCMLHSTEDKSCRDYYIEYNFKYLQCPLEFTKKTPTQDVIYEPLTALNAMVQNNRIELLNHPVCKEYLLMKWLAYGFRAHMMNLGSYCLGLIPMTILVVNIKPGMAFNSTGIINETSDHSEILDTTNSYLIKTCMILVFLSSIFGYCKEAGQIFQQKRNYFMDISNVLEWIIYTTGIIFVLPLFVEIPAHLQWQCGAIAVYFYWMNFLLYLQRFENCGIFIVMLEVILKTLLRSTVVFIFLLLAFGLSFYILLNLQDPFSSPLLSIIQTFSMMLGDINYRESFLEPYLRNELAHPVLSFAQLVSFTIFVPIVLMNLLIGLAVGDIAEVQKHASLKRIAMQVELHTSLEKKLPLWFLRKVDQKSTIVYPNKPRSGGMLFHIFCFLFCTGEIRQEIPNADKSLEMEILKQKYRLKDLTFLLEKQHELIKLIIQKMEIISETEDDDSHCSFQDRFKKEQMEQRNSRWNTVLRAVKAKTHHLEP

| SMILES | inhibition of Ca2+ influx induced by 10 µM AITC and 30 µM NGCC in hTRPA1-expressing cells (hTRPA1 [1]) | block of NGCC activity on hTRPA1-expressing cells (dose-response) (hTRPA1 [2]) | block of AITC activity on hTRPA1-expressing cells (dose-response) (hTRPA1 [2]) | block of NGCC-induced currents in hTRPA1-expressing cells (hTRPA1 [3]; HC-030031 100 µM) | block of AITC-induced current (hTRPA1 [3]; HC-030031 100 µM preincubation 30 seconds, AITC 100 µM) | normalized current density of NGCC-induced current after wash out of HC-030031 (hTRPA1 [3]; n = 4) | normalized current density of NGCC-induced current under HC-030031 (hTRPA1 [3]; n = 4) | block of capsaicin- and NGCC-induced hTRPV1 activation (dose-response) (hTRPV1 [4]) | block of NGCC-induced Ca2+ influx in hTRPV1-expressing cells (hTRPV1 [5]) | inward current in cells expressing hTRPV1 (hTRPV1 [6]) | effect on the NaCl+Bz CT response at 200 µM ([7]; 200 µM) | concentration giving the maximum increase in the NaCl+Bz CT response [7] [µM] |
| --- | --- | --- | --- | --- | --- | --- | --- | --- | --- | --- | --- | --- |
| CC(C)c1ccc(NC(=O)Cn2cnc3c2c(=O)n(C)c(=O)n3C)cc1 [HC-030031] | significantly inhibited | almost blocked NGCC activity | partially blocked AITC activity | almost completely inhibited | partially blocked | 1.37±0.07 | 0.25±0.03 |  |  |  |  |  |
| N.N.N.N.N.N.N.N.N.N.N.N.N.N.[Cl-].[Cl-].[Cl-].[Cl-].[Cl-].[Cl-].[O-2].[O-2].[Ru+3].[Ru+3].[Ru+4] [RR, ruthenium red] | significantly inhibited | almost blocked NGCC activity | partially blocked AITC activity |  |  |  |  | inhibited capsaicin- and NGCC-induced hTRPV1 activation, but was less effective than CPZ | blocked NGCC activity to baseline levels |  |  |  |
| COc1cc(CNC(=O)CCCC/C=C/C(C)C)ccc1O [capsaicin, Capsaicin] |  |  |  |  |  |  |  |  |  | induced an inward current | completely inhibited | 40 |
